This passage reports IC50 results from patent US10160747B2, “Compounds and methods for kinase modulation, and indications therefor” (Plexxikon Inc., priority 2016, dated 2018).

The subject of experiment [1] is MOLM-14 D835Y (endogenous FLT3 ITD and transfected FLT3 D835Y). Put plainly: MOLM-14 D835Y cell proliferation assay (CellTiter-Glo). Type of experiment: cell-based. The conditions noted are these: Homo sapiens, MOLM-14, 72 h; 3 d growth, GMean. A digest of the protocol:
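Three-day proliferation at 37 °C/5% CO2 of FLT3-ITD MOLM-14 lines with D835Y or F691L mutation, seeded 1×10^4 per well. Compounds at eight points, top 1 μM final, 0.2% DMSO. ATP luminescence (CellTiter-Glo) gives IC50.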
A general note: In ATP-based viability assays light output follows the ATP content of the culture.

The next experiment addresses T1, c-KIT (Homo sapiens, UniProt P10721).
T1 construct: purchased Millipore 14-559K
As to the kind of experiment: c-KIT recombinant enzyme kinase assay (AlphaScreen). The conditions noted are these: 100 ATP, 8 pt. Type of experiment: biochemical. Put shortly:
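Recombinant enzyme phosphorylated biotinylated poly(Glu4-Tyr) peptide (30 nM final) with ATP at 10 μM for FLT3-ITD and FLT3-D835Y or 100 μM for c-KIT. Phosphopeptide was detected by AlphaScreen with streptavidin donor and anti-phosphotyrosine (PY20) acceptor beads (10 μg/mL), read at 580 nm, for IC50 determination.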

T1 sequence (P10721 26-976): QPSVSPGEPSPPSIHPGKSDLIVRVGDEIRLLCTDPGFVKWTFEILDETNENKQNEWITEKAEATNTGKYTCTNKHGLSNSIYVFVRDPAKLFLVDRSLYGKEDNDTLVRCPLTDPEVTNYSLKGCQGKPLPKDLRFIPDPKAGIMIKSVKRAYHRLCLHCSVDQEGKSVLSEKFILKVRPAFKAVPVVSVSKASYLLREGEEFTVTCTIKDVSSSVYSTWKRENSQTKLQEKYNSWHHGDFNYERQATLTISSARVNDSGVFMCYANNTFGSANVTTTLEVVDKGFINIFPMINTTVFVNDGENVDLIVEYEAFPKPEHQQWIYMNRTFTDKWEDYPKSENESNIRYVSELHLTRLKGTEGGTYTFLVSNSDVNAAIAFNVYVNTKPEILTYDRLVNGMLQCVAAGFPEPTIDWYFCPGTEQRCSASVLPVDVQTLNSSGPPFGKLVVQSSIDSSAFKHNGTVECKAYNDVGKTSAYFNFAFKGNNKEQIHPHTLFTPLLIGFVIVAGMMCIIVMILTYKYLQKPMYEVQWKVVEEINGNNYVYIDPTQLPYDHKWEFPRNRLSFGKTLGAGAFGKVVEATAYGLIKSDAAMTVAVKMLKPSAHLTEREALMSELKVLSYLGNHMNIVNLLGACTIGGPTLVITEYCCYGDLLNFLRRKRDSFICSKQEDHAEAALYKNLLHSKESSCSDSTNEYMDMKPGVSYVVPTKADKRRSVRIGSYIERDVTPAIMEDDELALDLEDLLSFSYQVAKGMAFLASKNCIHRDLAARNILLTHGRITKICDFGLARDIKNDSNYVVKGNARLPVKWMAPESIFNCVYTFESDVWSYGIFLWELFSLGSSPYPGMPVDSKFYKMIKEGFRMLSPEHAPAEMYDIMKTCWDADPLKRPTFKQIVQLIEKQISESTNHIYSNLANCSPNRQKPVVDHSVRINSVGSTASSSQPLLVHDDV

Broadly, the IC50 is the concentration needed to halve the response being measured. For the compound `COCCn1cc(Nc2ncc(-c3ccc(CC(=O)Nc4ccc(C(F)(F)F)nc4)c(F)c3)cn2)cn1` [Compound P-0268, 2-[2-fluoro-4-[2-[[1-(2-methoxyethyl)pyrazol-4-yl]amino]pyrimidin-5-yl]phenyl]-N-[6-(trifluoromethyl)-3-pyridyl]acetamide], the half-maximal inhibitory concentration (IC50) (in experiment [1]; on c-KIT) was 0.0001 to 10 µM throughout.

On to `COCCn1cc(Nc2ncc(-c3ccc(CC(=O)Nc4cnc(OC)c(C(F)(F)F)c4)cc3)cn2)cn1` [Compound P-0271, 2-[4-[2-[[1-(2-methoxyethyl)pyrazol-4-yl]amino]pyrimidin-5-yl]phenyl]-N-[6-methoxy-5-(trifluoromethyl)-3-pyridyl]acetamide], for which the 50% inhibitory concentration (IC50) (in experiment [1]; at c-KIT) was 0.0001 to 10 µM throughout. Consider `COCCn1cc(Nc2ncc(-c3ccc(CC(=O)Nc4ccc(C(F)(F)F)nc4)cc3)cn2)cn1` [Compound P-0273, 2-[4-[2-[[1-(2-methoxyethyl)pyrazol-4-yl]amino]pyrimidin-5-yl]phenyl]-N-[6-(trifluoromethyl)-3-pyridyl]acetamide], for which the half-maximal inhibitory concentration (IC50) (in experiment [1]; on c-KIT) was 0.0001 to 10 µM in each case. For `Cn1cnc(Nc2ncc(-c3ccc(CC(=O)Nc4cc(C(F)(F)F)ccn4)cc3F)cn2)c1` [Compound P-0018, 2-[3-fluoro-4-[2-[(1-methylimidazol-4-yl)amino]pyrimidin-5-yl]phenyl]-N-[4-(trifluoromethyl)-2-pyridyl]acetamide], the IC50 (in experiment [1]; on c-KIT) was 0.0001 to 10 µM each time. Consider `CCn1cc(Nc2ncc(-c3ccc(CC(=O)Nc4cnc(OC)c(C(F)(F)F)c4)c(F)c3)cn2)cn1` [Compound P-0259, 2-[4-[2-[(1-ethylpyrazol-4-yl)amino]pyrimidin-5-yl]-2-fluoro-phenyl]-N-[6-methoxy-5-(trifluoromethyl)-3-pyridyl]acetamide], for which the half-inhibitory concentration (IC50) (in experiment [1]; at c-KIT) was 0.0001 to 10 µM each time.

On to `CCn1cc(Nc2ncc(-c3ccc(CC(=O)Nc4cnc(C)c(C(F)(F)F)c4)cc3)cn2)cn1` [Compound P-0254, 2-[4-[2-[(1-ethylpyrazol-4-yl)amino]pyrimidin-5-yl]phenyl]-N-[6-methyl-5-(trifluoromethyl)-3-pyridyl]acetamide], for which the IC50 (in experiment [1]; at c-KIT) was 0.0001 to 10 µM each time. Consider `CCn1cc(Nc2ncc(-c3ccc(CC(=O)Nc4ccc(C(F)(F)F)cn4)cc3)cn2)cn1` [Compound P-0251, 2-[4-[2-[(1-ethylpyrazol-4-yl)amino]pyrimidin-5-yl]phenyl]-N-[5-(trifluoromethyl)-2-pyridyl]acetamide], for which the IC50 (in experiment [1]; at c-KIT) was 0.0001 to 10 µM throughout.

With `O=C(Cc1ccc(-c2cnc(Nc3cnn(C(F)F)c3)nc2)cc1)Nc1cc(C(F)(F)F)ccn1` [Compound P-0023, 2-[4-[2-[[1-(difluoromethyl)pyrazol-4-yl]amino]pyrimidin-5-yl]phenyl]-N-[4-(trifluoromethyl)-2-pyridyl]acetamide], the 50% inhibitory concentration (IC50) (in experiment [1]; on c-KIT) was 0.0001 to 10 µM throughout. Regarding `CCn1cc(Nc2ncc(-c3ccc(CC(=O)Nc4cnc(OC)c(C(F)(F)F)c4)cc3F)cn2)cn1` [Compound P-0246, 2-[4-[2-[(1-ethylpyrazol-4-yl)amino]pyrimidin-5-yl]-3-fluoro-phenyl]-N-[6-methoxy-5-(trifluoromethyl)-3-pyridyl]acetamide], the IC50 (in experiment [1]; at c-KIT) was 0.0001 to 10 µM throughout. As for `COCCn1cc(Nc2ncc(-c3ccc(CC(=O)Nc4cnc(OC)c(C(F)(F)F)c4)c(F)c3)cn2)cn1` [Compound P-0265, 2-[2-fluoro-4-[2-[[1-(2-methoxyethyl)pyrazol-4-yl]amino]pyrimidin-5-yl]phenyl]-N-[6-methoxy-5-(trifluoromethyl)-3-pyridyl]acetamide], the 50% inhibitory concentration (IC50) (in experiment [1]; at c-KIT) was 0.0001 to 10 µM in each case. Regarding `O=C(Cc1ccc(-c2cnc(Nc3cnn(C4CC4)c3)nc2)cc1F)Nc1cc(C(F)(F)F)ccn1` [Compound P-0244, 2-[4-[2-[(1-cyclopropylpyrazol-4-yl)amino]pyrimidin-5-yl]-2-fluoro-phenyl]-N-[4-(trifluoromethyl)-2-pyridyl]acetamide], the IC50 (in experiment [1]; on c-KIT) was 0.0001 to 10 µM each time. As for `COc1ncc(NC(=O)Cc2ccc(-c3cnc(Nc4cnn(C)c4)nc3)c(F)c2)cc1C(F)(F)F` [Compound P-0206, 2-[3-fluoro-4-[2-[(1-methylpyrazol-4-yl)amino]pyrimidin-5-yl]phenyl]-N-[6-methoxy-5-(trifluoromethyl)-3-pyridyl]acetamide], the IC50 in experiment [1] is 0.0001 to 10 µM. As to `COCCn1cc(Nc2ncc(-c3ccc(CC(=O)Nc4ccc(C(F)(F)F)cn4)c(F)c3)cn2)cn1` [Compound P-0269, 2-[2-fluoro-4-[2-[[1-(2-methoxyethyl)pyrazol-4-yl]amino]pyrimidin-5-yl]phenyl]-N-[5-(trifluoromethyl)-2-pyridyl]acetamide], the half-maximal inhibitory concentration (IC50) (in experiment [1]; on c-KIT) was 0.0001 to 10 µM each time.

Regarding `O=C(Cc1ccc(-c2cnc(Nc3cnn(C4CC4)c3)nc2)cc1)Nc1cncc(C(F)(F)F)c1` [Compound P-0231, 2-[4-[2-[(1-cyclopropylpyrazol-4-yl)amino]pyrimidin-5-yl]phenyl]-N-[5-(trifluoromethyl)-3-pyridyl]acetamide], the half-inhibitory concentration (IC50) (in experiment [1]; at c-KIT) was 0.0001 to 10 µM throughout. On to `COc1ncc(NC(=O)Cc2ccc(-c3cnc4[nH]nc(C5CC5)c4c3)cc2)cc1C(F)(F)F` [Compound P-0263, 2-[4-(3-cyclopropyl-1H-pyrazolo[3,4-b]pyridin-5-yl)phenyl]-N-[6-methoxy-5-(trifluoromethyl)-3-pyridyl]acetamide], for which the IC50 (in experiment [1]; on c-KIT) was 0.0001 to 10 µM throughout.

`COc1ncc(NC(=O)Cc2ccc(-c3cnc4[nH]c(-c5ccnc(C#N)c5)cc4c3)c(F)c2)cc1C(F)(F)F` [Compound P-0016, 2-[4-[2-(2-cyano-4-pyridyl)-1H-pyrrolo[2,3-b]pyridin-5-yl]-3-fluoro-phenyl]-N-[6-methoxy-5-(trifluoromethyl)-3-pyridyl]acetamide] returned an IC50 in experiment [1] of 0.0001 to 10 µM. Take `COc1ncc(NC(=O)Cc2ccc(-c3cnc4[nH]nc(N)c4c3)c(F)c2)cc1C(F)(F)F` [Compound P-0203, 2-[4-(3-amino-1H-pyrazolo[3,4-b]pyridin-5-yl)-3-fluoro-phenyl]-N-[6-methoxy-5-(trifluoromethyl)-3-pyridyl]acetamide]: the IC50 (in experiment [1]; on c-KIT) was 0.0001 to 10 µM in each case.

As to `COc1ncc(NC(=O)Cc2ccc(-c3cnc(Nc4cnn(C5CC5)c4)nc3)cc2)cc1C(F)(F)F` [Compound P-0234, 2-[4-[2-[(1-cyclopropylpyrazol-4-yl)amino]pyrimidin-5-yl]phenyl]-N-[6-methoxy-5-(trifluoromethyl)-3-pyridyl]acetamide], the half-maximal inhibitory concentration (IC50) (in experiment [1]; on c-KIT) was 0.0001 to 10 µM in each case. As for `Cc1ncc(NC(=O)Cc2ccc(-c3cnc(Nc4cnn(C5CC5)c4)nc3)cc2)cc1C(F)(F)F` [Compound P-0232, 2-[4-[2-[(1-cyclopropylpyrazol-4-yl)amino]pyrimidin-5-yl]phenyl]-N-[6-methyl-5-(trifluoromethyl)-3-pyridyl]acetamide], the IC50 (in experiment [1]; on c-KIT) was 0.0001 to 10 µM in each case.

In the case of `COc1ncc(NC(=O)Cc2ccc(-c3cnc4[nH]c(-c5ccnc(C#N)c5)cc4c3)cc2F)cc1C(F)(F)F` [Compound P-0013, 2-[4-[2-(2-cyano-4-pyridyl)-1H-pyrrolo[2,3-b]pyridin-5-yl]-2-fluoro-phenyl]-N-[6-methoxy-5-(trifluoromethyl)-3-pyridyl]acetamide], the IC50 (in experiment [1]; at c-KIT) was 0.0001 to 10 µM in each case. As for `COc1ncc(NC(=O)Cc2ccc(-c3cnc4[nH]c(C#CC(C)(C)C)cc4c3)cc2)cc1C(F)(F)F` [Compound P-0219, 2-[4-[2-(3,3-dimethylbut-1-ynyl)-1H-pyrrolo[2,3-b]pyridin-5-yl]phenyl]-N-[6-methoxy-5-(trifluoromethyl)-3-pyridyl]acetamide], the IC50 in experiment [1] lay in the range of 0.0001 to 10 µM. On to `COc1ncc(NC(=O)Cc2ccc(-c3cnc4[nH]c(-c5ccc(C#N)nc5)cc4c3)c(F)c2)cc1C(F)(F)F` [Compound P-0014, 2-[4-[2-(6-cyano-3-pyridyl)-1H-pyrrolo[2,3-b]pyridin-5-yl]-3-fluoro-phenyl]-N-[6-methoxy-5-(trifluoromethyl)-3-pyridyl]acetamide], for which the IC50 in experiment [1] is 0.0001 to 10 µM.

`COc1ncc(NC(=O)Cc2ccc(-c3cnc4[nH]c(C#Cc5cncn5C)cc4c3)cc2)cc1C(F)(F)F` [Compound P-0227, N-[6-methoxy-5-(trifluoromethyl)-3-pyridyl]-2-[4-[2-[2-(3-methylimidazol-4-yl)ethynyl]-1H-pyrrolo[2,3-b]pyridin-5-yl]phenyl]acetamide]: the IC50 in experiment [1] lay in the range of 0.0001 to 10 µM. The same measure, in the same setting: with `COc1ncc(NC(=O)Cc2ccc(-c3cnc4[nH]c(-c5cnn(C(F)F)c5)cc4c3)cc2F)cc1C(F)(F)F` [Compound P-0015, 2-[4-[2-[1-(difluoromethyl)pyrazol-4-yl]-1H-pyrrolo[2,3-b]pyridin-5-yl]-2-fluoro-phenyl]-N-[6-methoxy-5-(trifluoromethyl)-3-pyridyl]acetamide] the figure was 0.0001 to 10 µM. Consider `COc1ncc(NC(=O)Cc2ccc(-c3cnc4[nH]c(-c5ccc(C#N)nc5)cc4c3)cc2F)cc1C(F)(F)F` [Compound P-0011, 2-[4-[2-(6-cyano-3-pyridyl)-1H-pyrrolo[2,3-b]pyridin-5-yl]-2-fluoro-phenyl]-N-[6-methoxy-5-(trifluoromethyl)-3-pyridyl]acetamide], for which the IC50 in experiment [1] was in the range of 0.0001 to 10 µM. In experiment [1], `COc1cc(-c2cc3cc(-c4ccc(CC(=O)Nc5cncc(C(F)(F)F)c5)cc4F)cnc3[nH]2)ccn1` [Compound P-0200, 2-(3-fluoro-4-(2-(2-methoxypyridin-4-yl)-1H-pyrrolo[2,3-b]pyridin-5-yl)phenyl)-N-(5-(trifluoromethyl)pyridin-3-yl)acetamide] displayed a half-inhibitory concentration (IC50) of 0.0001 to 10 µM.
